This assay has as its target Tyrosine-protein kinase BTK (Homo sapiens, UniProt Q06187). Description: LANCE-TR-FRET Assay: Assay Method B: BTK enzymatic activity was determined with the LANCE (Lanthanide Chelate Excite) TR-FRET (Time-resolved fluorescence resonance energy transfer) assay. In this assay, the potency (IC50) of each compound was determined from an eleven point (1:3 serial dilution; final compound concentration range in assay from 1 μM to 0.017 nM) titration curve using the following outlined procedure. To each well of a black non-binding surface Corning 384-well microplate (Corning Catalog #3820), 5 nL of compound (2000 fold dilution in final assay volume of 10 μL) was dispensed, followed by the addition of 7.5 μL of 1× kinase buffer (50 mM Hepes 7.5, 10 mM MgCl2, 0.01% Brij-35, 1 mM EGTA, 0.05% BSA & 1 mM DTT) containing 5.09 pg/μL (66.67 pM) of BTK enzyme (recombinant protein from baculovirus-transfected Sf9 cells: full-length BTK, 6HIS-tag cleaved). Following a 60 minute compound & enzyme incubation, each reaction was initiated by the addition of 2.5 μL 1× kinase buffer containing 8 μM biotinylated "A5" peptide (Biotin-EQEDEPEGDYFEWLE-NH2), and 100 μM ATP. The final reaction in each well of 10 μL consists of 50 pM hBTK, 2 μM biotin-A5-peptide, and 25 μM ATP. Phosphorylation reactions were allowed to proceed for 120 minutes. […]. (In TR-FRET formats the signal depends on donor and acceptor labels being close together.)

Structures are written as SMILES.

Chain of Tyrosine-protein kinase BTK (Q06187 whole entry): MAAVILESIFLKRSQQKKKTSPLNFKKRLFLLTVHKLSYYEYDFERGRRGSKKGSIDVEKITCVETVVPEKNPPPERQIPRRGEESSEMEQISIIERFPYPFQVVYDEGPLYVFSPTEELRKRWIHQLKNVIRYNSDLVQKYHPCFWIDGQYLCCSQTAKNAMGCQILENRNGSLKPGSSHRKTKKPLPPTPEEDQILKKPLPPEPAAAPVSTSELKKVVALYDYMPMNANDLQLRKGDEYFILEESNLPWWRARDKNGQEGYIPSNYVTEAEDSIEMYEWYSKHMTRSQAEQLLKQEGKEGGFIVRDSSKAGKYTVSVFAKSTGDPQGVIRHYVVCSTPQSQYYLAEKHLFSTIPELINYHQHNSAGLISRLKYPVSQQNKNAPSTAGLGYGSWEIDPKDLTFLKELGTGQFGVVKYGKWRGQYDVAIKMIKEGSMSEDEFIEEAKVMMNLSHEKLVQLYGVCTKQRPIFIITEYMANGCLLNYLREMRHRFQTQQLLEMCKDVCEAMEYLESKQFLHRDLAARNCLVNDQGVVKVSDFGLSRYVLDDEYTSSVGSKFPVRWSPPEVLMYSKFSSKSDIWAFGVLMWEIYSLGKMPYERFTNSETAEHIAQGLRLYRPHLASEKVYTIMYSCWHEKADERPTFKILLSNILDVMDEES

Turning to `Cn1ncc2c1CCC[C@@H]2n1nc(-c2ccc(C(=O)Nc3cc(C(F)(F)F)ccn3)cc2)c2c(N)ncnc21`, the IC50 (in general, the concentration that gives 50% inhibition) was determined as 2.7 nM.

Source of the values: ChEMBL document CHEMBL3886923, “BTK inhibitors” (2016).
